Experimental data reported in PMC5118696, “Identification of inhibitors that dually target the new permeability pathway and dihydroorotate dehydrogenase in the blood stage of Plasmodium falciparum” (Scientific Reports, 2016).
Like-named read-outs stand apart in the source and are kept apart here.

Columns and labels:
[1] = tested on: Hyp1-NLuc Plasmodium falciparum-infected erythrocytes (new permeability pathway, NPP); assay: microbe, parasite or virus in culture; details: Erythrocyte, 0.33 h, read-out: % of control remaining
[2] = tested on: Hyp1-NLuc Plasmodium falciparum-infected erythrocytes (new permeability pathway, NPP); assay: microbe, parasite or virus in culture; details: Erythrocyte, 0.33 h, read-out: Mean RLU at 28 min (As % of DMSO control)

Row | Structure (SMILES) | activity at 2 µM [1] | activity at 2 µM [2]
1 | COc1cc(SC)ccc1C(=O)N1CCCC(C)C1 (centres unmarked) [MMV056726] | 123% | 122%
2 | Cc1ccc(OCCCCCCNCCO)c(C)c1 [MMV666020] | 97.1% | 97%
3 | COc1cc(C(=O)Nc2ccc(-c3nc4ccccc4[nH]3)cc2)cc(OC)c1OC [MMV665898] | 103% | 108%
4 | CCCCCn1c(=N)n(CC(O)COc2cccc(C)c2)c2ccccc21 (centres unmarked) [MMV000444] | 99.2% | 95.8%
5 | COc1ccc(-c2cc(=O)oc3c4c(ccc23)OCN(Cc2ccc(F)cc2)C4)cc1 [MMV000604] | 106% | 104%
6 | O=C1C2=C(Nc3ccccc3SC2c2ccccc2)c2ccccc21 (centres unmarked) [MMV645672] | 106% | 106%
7 | O=C1c2ccc3c4c(ccc(c24)C(=O)N1CCCCO)C(=O)N(CCCCO)C3=O [MMV009085] | 58.9% | 93.1%
8 | COc1ccccc1N=C1C(=O)c2ccccc2C(O)=C1N1CCCCC1 [MMV085203] | 104% | 107%
9 | COc1ccc(C=C2SC(Nc3ccccc3)=NC2=O)cc1 [MMV665836] | 55.9% | 86.5%
10 | OC(Cn1nnc2ccccc21)Cn1c2ccc(Br)cc2c2cc(Br)ccc21 (centres unmarked) [MMV666025] | 105% | 99.5%
11 | O=C(NC1CCN(Cc2ccccc2)CC1)c1cc(-c2ccncc2)nc2ccc(Cl)cc12 [MMV020275] | 115% | 115%
12 | O=c1cc(NC2CCN(CCCc3ccccc3)CC2)c2cc(Cl)ccc2o1 [MMV665786] | 89.1% | 96.5%
13 | Oc1c(CN2CCN(c3ccccc3F)CC2)cc(Br)c2cccnc12 [MMV000760] | 114% | 112%
14 | Cc1ccc(S(=O)(=O)c2c(COC(=O)c3cccc(C)c3)c(-c3ccccc3)nn2C)cc1 [MMV665936] | 100% | 97%
15 | OC(CNC1CCCCC1)Cn1c2ccccc2c2ccccc21 (centres unmarked) [MMV009063] | 92.9% | 97%
16 | CCCCN(CCCC)S(=O)(=O)c1ccc(NC(=O)c2ccco2)cc1 [MMV007881] | 96.9% | 104%
17 | Oc1ccccc1CN1CCN(C(c2ccccc2)c2ccccc2)CC1 [MMV011795] | 113% | 115%
18 | Clc1ccc2[nH]c3c(NCCCN4CCOCC4)ncnc3c2c1 [MMV006587] | 102% | 116%
19 | CC(C)c1ccc(CNCC(O)c2ccccc2)cc1 (centres unmarked) [MMV001049] | 116% | 113%
20 | O=C1c2ccccc2-c2nnc(-c3ccc(Br)cc3)cc21 [MMV665934] | 97.2% | 92.6%
21 | O=C(Nc1ccc(N2CCCCC2)c(Cl)c1)c1ccc(Br)o1 [MMV019700] | 118% | 117%
22 | Cc1cccc(Nc2nc(N)c3ccccc3n2)c1 [MMV019110] | 106% | 105%
23 | CCOc1cc2c(cc1OCC)C(c1cc(Cl)c(O)c(OCC)c1)NCC2 (centres unmarked) [MMV000481] | 114% | 112%
24 | Cc1ccccc1OCCSc1nc2ccc(NC(=O)c3ccccc3)cc2s1 [MMV007577] | 98.1% | 97.3%

Row | Structure (SMILES) | activity at 2 µM [1] | activity at 2 µM [2]
25 | FC(F)(F)c1cccc(CNC2CCN(CCc3ccccc3)CC2)c1 [MMV665979] | 112% | 104%
26 | CCOc1c(Br)cc(C2C(C(=O)OC)=CN(C)C=C2C(=O)OC)cc1OC [MMV006764] | 85.8% | 80.4%
27 | CN1CCN(c2c3c(c(C#N)c4nc5ccccc5n24)CCC3)CC1 [MMV008127] | 111% | 112%
28 | COc1ccc(CNC2CCN(c3ccc(NC(=O)c4cccc(Cl)c4)cc3)CC2)cc1OC [MMV666067] | 111% | 101%
29 | CCCC(c1nnnn1C1CCCCC1)N1CCN(C(=O)c2ccco2)CC1 (centres unmarked) [MMV666093] | 113% | 104%
30 | O=C(NNc1cc(N2CCCC2)nc(N2CCCC2)n1)c1ccccc1 [MMV396770] | 88.7% | 101%
31 | O=C(Nc1ccc(Cl)cc1C(=O)Nc1ccncc1)c1ccc(Cl)cc1Cl [MMV666057] | 119% | 105%
32 | CCCCc1ccc(NS(=O)(=O)c2cc3c4c(c2)CCN4C(=O)CC3)cc1 [MMV001255] | 89.2% | 100%
33 | COc1ccc2c(c1)OC(O)(C(F)(F)C(F)(F)F)CC2=O (centres unmarked) [MMV007839] | 93.7% | 104%
34 | O=C(Nc1cccc(C2=NCCN2)c1)Nc1cccc(C2=NCCN2)c1 [MMV665810] | 84.4% | 85.8%
35 | CNCCCNc1ccnc2cc(Cl)ccc12 [MMV020500] | 97.7% | 98.7%
36 | COc1cccc(O)c1CN1CCC2(CCCN(Cc3ccc(F)cc3)C2)C1 (centres unmarked) [MMV666061] | 126% | 111%
37 | COc1ccc(NC(=O)C2c3ccccc3C(=O)N(CC(C)C)C2c2cccs2)cc1Cl (centres unmarked) [MMV000642] | 94% | 94.6%
38 | COCCNC(=O)c1ccc(OC2CCN(Cc3ccc(F)c(F)c3)CC2)c(Cl)c1 [MMV666072] | 115% | 103%
39 | CCOc1cccc(C(=O)Nc2ccc(-c3nc4ccccc4[nH]3)cc2)c1 [MMV019202] | 117% | 118%
40 | Cc1cc(N2CCCC2)nc(Nc2ccc(NC(=O)CCc3ccccc3)cc2)n1 [MMV396669] | 76.3% | 90.3%
41 | COc1ccc(-c2cc3c(nn2)-c2ccccc2C3=O)cc1 [MMV666026] | 108% | 98.8%
42 | COc1ccc(C(=O)C2CC2c2ccc(Cl)cc2)cc1 (centres unmarked) [MMV665924] | 103% | 100%
43 | CCCCCC(=O)N1c2ccccc2N=C2CC(c3ccc(OC)c(OC)c3)CC(O)=C2C1c1ccc(C(F)(F)F)cc1 (centres unmarked) [MMV085583] | 102% | 103%
44 | CN1C=C(c2ccc3ccccc3n2)C(c2c[nH]c3ccccc23)c2ccccc21 (centres unmarked) [MMV008160] | 86% | 91.7%
45 | Cc1ccc(Nc2nc(NCCO)c3ccccc3n2)cc1C [MMV001038] | 102% | 102%
46 | CC(C)(C)C(=O)Nc1ccc(C(=O)Nc2cccc(-c3nc4ccccc4[nH]3)c2)cc1 [MMV665879] | 114% | 103%
47 | OC(CNC1CCCC1)Cn1c2ccccc2c2ccccc21 (centres unmarked) [MMV000848] | 110% | 112%
48 | Cc1cc(C)cc(Nc2cc(C)nc3nc(C(F)(F)F)nn23)c1 [MMV011259] | 98.6% | 101%

Row | Structure (SMILES) | activity at 2 µM [1] | activity at 2 µM [2]
49 | Cc1cc(Nc2ccc3ccccc3c2)n2ncnc2n1 [MMV011099] | 99.8% | 99.9%
50 | FC(F)(F)c1cccc(Nc2nc3ccccc3nc2Nc2cccc(C(F)(F)F)c2)c1 [MMV665794] | 109% | 103%
51 | Fc1ccc2[nH]c3c(NCCCN4CCOCC4)ncnc3c2c1 [MMV019871] | 102% | 106%
52 | CN(C)c1ccc(N2C(N)=NC(N)=NC2(C)C)cc1 [MMV667487] | 98.1% | 97%
53 | Cc1cc(Nc2ccc(C)c(Cl)c2)n2nc(C(F)(F)F)nc2n1 [MMV665874] | 106% | 107%
54 | CC1CC2=C(CC1CNCCCN(C)C)C(C)(C)CCC2 (centres unmarked) [MMV665830] | 104% | 105%
55 | CCOc1ccccc1CN1CCc2nc3cc(C(C)(C)C)nn3c(O)c2C1 [MMV396595] | 86.5% | 88.3%
56 | N=c1c2ccccc2nnn1-c1cccc(C(F)(F)F)c1 [MMV665923] | 89.5% | 94.3%
57 | COc1ccc2nc(C)cc(Nc3ccccc3O)c2c1 [MMV274073] | 110% | 110%
58 | O=C(Nc1ccc(Br)cc1)Nc1cccc(Cl)c1 [MMV001318] | 107% | 105%
59 | CCOC(=O)c1cnc2ccc(OC)cc2c1Nc1ccc(N2CCN(C)CC2)cc1 [MMV000704] | 94.6% | 106%
60 | COc1ccc(-c2nonc2NC(=O)c2cccc(C)c2)cc1OC [MMV665890] | 113% | 104%
61 | CCOc1ccc2c(c1)CN(Cc1ccc(Cl)cc1)CO2 [MMV000443] | 94.2% | 99.2%
62 | CCOC(=O)C1=C(C)N=c2sc(=Cc3cc(Cl)ccc3O)c(=O)n2C1c1ccc(OC)cc1 (centres unmarked) [MMV665971] | 102% | 101%
63 | Oc1ccccc1CN1CCC2(CCCN(Cc3ccccc3F)C2)C1 (centres unmarked) [MMV666116] | 106% | 100%
64 | COc1ccc(NC(=O)C2c3ccccc3C(=O)N(CC(C)C)C2c2cccs2)cc1 (centres unmarked) [MMV000662] | 85.7% | 85.9%
65 | CC1CCN(Cc2c(O)ccc3cc(-c4nc5ccccc5s4)c(=O)oc23)CC1 [MMV009127] | 105% | 101%
66 | O=C(CCc1ccco1)NC1CCN(CC2(c3ccc(Cl)cc3)CCC2)CC1 [MMV666108] | 114% | 100%
67 | CC(NCc1ccccc1)c1cc(Cl)ccc1O (centres unmarked) [MMV665789] | 117% | 107%
68 | CCN(CC)c1cc(C)c2cc(NC(=O)c3cccc(OC)c3)ccc2n1 [MMV000498] | 118% | 107%
69 | COc1ccc(CCNC(=O)c2cc(S(=O)(=O)N3CC(C)CC(C)C3)ccc2Sc2ccc(F)cc2)cc1OC (centres unmarked) [MMV007557] | 106% | 102%
70 | COc1ccc(Nc2cc(C)nc(NCc3ccccc3)n2)cc1 [MMV006825] | 110% | 107%
